The values that follow come from patent publication US5792851A, “Human prostaglandin transporter” (Albert Einstin College of Medicine of Yeshiva University, a …, priority 1996, dated 1998).

Assay [1] deals with T1, human prostaglandin transporter (hPGT) (Homo sapiens, UniProt Q92959). Description: Inhibition of hPGT-mediated tracer PGE2 uptake in transfected HeLa cells. The assay is classed as cell-based.
The target in assay [2] is T1, human prostaglandin transporter (hPGT). Description: Timed uptake of tracer 3[H]-prostaglandins into HeLa cells expressing clone 3 (hPGT). The assay is classed as cell-based. To be noted: for difference between transport rates: 10 and 20 minutes; for 2-minute rank-order of uptakes: 2 minutes, 27° C., tracer 0.6-1.0 nM.
For assay [3], the system named is rat PGT. The assay is described as follows: Tracer prostaglandin transport by rat PGT re-expressed in HeLa cells. The assay is classed as cell-based. Particulars: data not shown.
In assay [4] the test system is rat PGT. Particulars: reference 36; cited from earlier work.
[5] abbreviates: HeLa, 10 min, read-out: percent of the control 10-min tracer PGE2 uptake.

As for `NS(=O)(=O)c1cc(C(=O)O)c(NCc2ccco2)cc1Cl` [Furosemide], in assay [1] (setting [5]), the remaining activity at 10 µM amounted to 91.5 ± 3.3% and the remaining activity at 100 µM is 63.3 ± 1.7%.
Regarding `COc1ccc2c(c1)c(CC(=O)O)c(C)n2C(=O)c1ccc(Cl)cc1` [Indomethacin], the “potency as inhibitor of hPGT (in words)” value in assay [1] is “much less effective”. Besides, in assay [1] (setting [5]), the remaining activity at 10 µM worked out at 114 ± 3.8% and the remaining activity at 100 µM came to 82.5 ± 1%.
In the case of `CCCCC[C@H](O)/C=C/[C@H]1C(=O)C[C@H](O)[C@@H]1C/C=C\CCCC(=O)O` [PGD2], the remaining activity at 0.1 µM in assay [1] (setting [5]) was 47.9 ± 0.9%. Besides, in assay [2], the “difference between transport rates” value was “essentially no difference” and the “2-minute rank-order of uptakes” value is “PGE2 >PGE1>PGF2α >PGD2 >TxB2”. Moreover, the “transport rate of tracer relative to PGE2” value in the assay with rat PGT [3] is given as “at a rate equivalent to that of PGE2”.
Consider `CCCCC[C@H](O)/C=C/[C@H]1[C@H](O)CC(=O)[C@@H]1CCCCCCC(=O)O` [PGE1], for which the remaining activity at 0.1 µM in assay [1] (setting [5]) was determined as 50.8 ± 3.4%. In assay [2], the “difference between transport rates” value is “essentially no difference” and the “2-minute rank-order of uptakes” value is given as “PGE2 >PGE1>PGF2α >PGD2 >TxB2”.
Consider `CCCCC[C@H](O)/C=C/[C@H]1[C@H](O)CC(=O)[C@@H]1C/C=C\CCCC(=O)O` [PGE2], for which, in assay [2], the “difference between transport rates” value is “essentially no difference” and the “2-minute rank-order of uptakes” value is “PGE2 >PGE1>PGF2α >PGD2 >TxB2”.
Regarding `CCCCC[C@H](O)/C=C/[C@@H]1[C@@H](C/C=C\CCCC(=O)O)[C@@H](O)C[C@H]1O` [PGF2α], in assay [1] (setting [5]), the remaining activity at 0.1 µM stood at 45 ± 1.3%. For the same molecule, in assay [2], the “difference between transport rates” value was “essentially no difference” and the “2-minute rank-order of uptakes” value is “PGE2 >PGE1>PGF2α >PGD2 >TxB2”.
For the molecule `CCCN(CCC)S(=O)(=O)c1ccc(C(=O)O)cc1` [Probenecid], the “potency as inhibitor of hPGT (in words)” value in assay [1] is “much less effective”. Also, in assay [1] (setting [5]), the remaining activity at 10 µM was 104 ± 5.2% and the remaining activity at 100 µM came out at 92.8 ± 2%.
For the molecule `CCCCC[C@H](O)/C=C/[C@H]1OC(O)C[C@H](O)[C@@H]1C/C=C\CCCC(=O)O` (stereo partly shown) [TxB2], in assay [1] (setting [5]), the remaining activity at 0.5 µM was 26.7 ± 0.1%. The “2-minute rank-order of uptakes” value in assay [2] is reported as “PGE2 >PGE1>PGF2α >PGD2 >TxB2”. The “transport rate relative to PGE2 or PGF2α” value in assay [2] (hPGT, FIG. 2) is “about half that of PGE2 or PGF2α”; in the assay on rat PGT [4] it was “about half that of PGE2 or PGF2α”.
`CC#CCC(C)[C@H](O)/C=C/[C@@H]1[C@H]2C/C(=C/CCCC(=O)O)C[C@H]2C[C@H]1O` (stereo partly shown) [iloprost]: the transport above baseline result in assay [2] (3[H]-iloprost 7.9 nM, data not shown) is reported as “not transported above baseline”.
